This is an account of results in patent US8076367B2, “Benzimidazolylidene propane-1,3-dione derivative or salt thereof” (Astellas Pharma Inc., priority 2004, dated 2011).

Each structure is given as a SMILES string.

The target in one data set is T1, human GnRH receptor (Homo sapiens, UniProt P30968).
T1 sequence (P30968 1-328): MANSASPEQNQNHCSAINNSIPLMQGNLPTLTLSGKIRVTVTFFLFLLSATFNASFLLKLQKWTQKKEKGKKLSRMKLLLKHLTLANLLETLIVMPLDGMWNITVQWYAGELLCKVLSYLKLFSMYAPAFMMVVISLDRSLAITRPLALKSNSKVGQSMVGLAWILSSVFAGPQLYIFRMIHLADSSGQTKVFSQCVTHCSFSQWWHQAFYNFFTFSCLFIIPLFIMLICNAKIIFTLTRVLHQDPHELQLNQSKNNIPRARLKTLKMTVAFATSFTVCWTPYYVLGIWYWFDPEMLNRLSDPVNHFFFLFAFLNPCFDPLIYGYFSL
Nature of the data set: Test on GnRH receptor antagonism (125I-D-Trp6-LHRH binding inhibition). Particulars: inhibition of 125I-D-Trp6-LHRH binding to human GnRH receptor. From the text: GnRH receptor antagonism test method described on p. 56 of the Patent Reference 1.

Data set [1] can be described thus: Measurement of blood concentration of a compound by ex vivo binding assay. Particulars: Wistar male rat, oral 10 mg/kg in 0.5% MC, serum 2 hours after administration, read-out: Blood compound concentration (B) 2 hour value. The method, then: Each compound to be tested was dissolved or suspended in 0.5% methyl cellulose (MC) solution and was orally administered to Wistar male rat of 9 weeks of age (SLC Japan) at a dose of 10 mg/kg. Blood sample was collected after 2 hours of the administration to obtain serum.
Each serum sample was mixed with the same volume of methanol to remove protein and optionally diluted with an assay buffer, and then the ^125I-D-Trp^6-LHRH binding inhibition ratio was measured in the same manner as in Test Example 1. Using a separately prepared calibration curve on the concentration-binding inhibition of compounds to be tested, blood concentration of each compound (μM) was calculated from the binding inhibition ratio.

Data set [2] is described as follows: Test on metabolic stability in human liver microsome. Format: in vitro ADME. Conditions: human liver microsome 0.2 mg protein/ml, 37° C. 15 minutes; compared with Ex 40, Ex 251, Ex 239 of Patent Reference 1.
A further data set deals with Cytochrome P450 (CYP3A4) (Homo sapiens, UniProt P08684). Nature of the data set: Cytochrome P450 (CYP3A4) enzyme inhibition, Inhibition Test II (preincubation). The format is in vitro ADME. Particulars: 30 minutes preincubation with human liver microsome and NADPH, then midazolam 20 minutes; compared with Ex 40, Ex 251, Ex 239 of Patent Reference 1. As for the experimental part:
Thereafter, midazolam as the substrate was added thereto and incubated at 37° C. for 20 minutes.
Background: Liver microsomes are vesicles of endoplasmic reticulum, rich in cytochrome P450 enzymes.

Sequence of Cytochrome P450 (CYP3A4) (P08684 whole entry): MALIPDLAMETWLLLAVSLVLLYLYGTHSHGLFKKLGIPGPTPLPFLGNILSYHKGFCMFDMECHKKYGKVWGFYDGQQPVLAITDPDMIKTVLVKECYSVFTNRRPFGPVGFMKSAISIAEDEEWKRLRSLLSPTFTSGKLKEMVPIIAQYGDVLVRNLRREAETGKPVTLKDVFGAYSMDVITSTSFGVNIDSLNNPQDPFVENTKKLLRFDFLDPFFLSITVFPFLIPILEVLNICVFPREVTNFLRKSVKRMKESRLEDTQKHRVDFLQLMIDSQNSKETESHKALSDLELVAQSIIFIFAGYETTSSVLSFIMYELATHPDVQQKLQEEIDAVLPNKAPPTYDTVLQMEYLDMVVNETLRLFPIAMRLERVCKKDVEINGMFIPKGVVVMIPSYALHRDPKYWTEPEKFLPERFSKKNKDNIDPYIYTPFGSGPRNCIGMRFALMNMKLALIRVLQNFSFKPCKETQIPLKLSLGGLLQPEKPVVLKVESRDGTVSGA

Consider `O=C(C(C(=O)c1cccc(C(O)CO)c1)=C1Nc2ccccc2N1)c1cc(F)cc(Cl)c1` (stereo not drawn) [Ex 2-3], for which the IC50 (in general, the midpoint of a concentration-inhibition curve) on human GnRH receptor came to 0.082 nM. The concentration at 2 h in data set [1] amounted to 710 nM.

`O=C(C(C(=O)c1cc(F)c(F)c(F)c1)=C1Nc2ccccc2N1)c1cccc(C(O)CO)c1` (stereo not drawn) [Ex 2-4]: the melting point – broadly, the temperature, or range, at which the solid turns liquid – fell in the range of 139 to 140 °C. The “metabolic stability in human liver microsome (in vitro clearance)” value (shortened to “metabolic stability”) in data set [2] is listed as “superior metabolic stability”. In addition, the 50% inhibitory concentration (IC50) at human GnRH receptor was 0.17 nM. In data set [1], the concentration at 2 h was determined as 1310 nM. In addition, the “Inhibitory activity II (CYP3A4)” value on Cytochrome P450 (CYP3A4) is reported as “superior actions”.

`O=C(C(C(=O)c1cccc(C(O)CO)c1)=C1Nc2ccc(F)cc2N1)c1cc(F)cc(F)c1` (stereo not drawn) [Ex 2-5] had an IC50 at human GnRH receptor of 0.1 nM. Moreover, the concentration at 2 h in data set [1] turned out to be 820 nM.

On human GnRH receptor, `O=C(C(C(=O)c1cccc(C(O)CO)c1)=C1Nc2ccccc2N1)c1cccc(F)c1` (stereo not drawn) [Ex 2-7] displayed an IC50 of 0.19 nM. Further, the concentration at 2 h in data set [1] came to 1650 nM.

Take `O=C(C(C(=O)c1cccc(C(O)CO)c1)=C1Nc2cc(F)c(Cl)cc2N1)c1cc(F)cc(F)c1` (stereo not drawn) [Ex 2-12]: the IC50 on human GnRH receptor was 0.15 nM. For the same compound, the concentration at 2 h in data set [1] was 920 nM.

As to `O=C(C(C(=O)c1cc(C(O)CO)ccc1F)=C1Nc2ccccc2N1)c1cc(F)cc(F)c1` (stereo not drawn) [Ex 2-20], at human GnRH receptor, the IC50 is 0.2 nM. Besides, in data set [1], the concentration at 2 h worked out at 1140 nM.

`O=C(C(C(=O)c1cc(F)cc(F)c1F)=C1Nc2ccccc2N1)c1cccc(C(O)CO)c1` (stereo not drawn) [Ex 2-48] displayed a melting point of 127 to 129 °C. Moreover, the IC50 at human GnRH receptor turned out to be 0.22 nM. Further, in data set [1], the concentration at 2 h came to 2160 nM.

On human GnRH receptor, `O=C(C(C(=O)c1cccc(C(O)CO)c1)=C1Nc2ccccc2N1)c1cccc(Cl)c1` (stereo not drawn) [Ex 2-50] came in with an IC50 of 0.12 nM. Moreover, the concentration at 2 h in data set [1] stood at 880 nM.

The compound `O=C(C(C(=O)c1cccc([C@@H](O)CO)c1)=C1Nc2ccccc2N1)c1cccc(F)c1` [Ex 4-1, 2-(1,3-dihydro-2H-benzimidazol-2-ylidene)-1-{3-[(1R)-1,2-dihydroxyethyl]phenyl}-3-(3-fluorophenyl)propane-1,3-dione] yielded a melting point of 190 to 191 °C. The “metabolic stability” value in data set [2] is “superior metabolic stability”. The IC50 on human GnRH receptor came out at 0.093 nM. Further, the concentration at 2 h in data set [1] amounted to 1360 nM. Also, the “Inhibitory activity II (CYP3A4)” value at Cytochrome P450 (CYP3A4) is “superior actions”.

Consider `O=C(C(C(=O)c1cccc([C@@H](O)CO)c1F)=C1Nc2ccccc2N1)c1cccc(F)c1` [Ex 4-4], for which the melting point lay in the range of 197 to 198 °C. The “metabolic stability” value in data set [2] is “superior metabolic stability”. Moreover, at human GnRH receptor, the IC50 came out at 0.1 nM. In data set [1], the concentration at 2 h is 1040 nM. For the same compound, the “Inhibitory activity II (CYP3A4)” value on Cytochrome P450 (CYP3A4) is on record as “superior actions”.

As to `Cc1c(C(=O)C(C(=O)c2cc(F)cc(F)c2)=C2Nc3ccccc3N2)cccc1[C@@H](O)CO` [Ex 4-5], the melting point fell in the range of 228 to 229 °C. The “metabolic stability” value in data set [2] is “superior metabolic stability”. At human GnRH receptor, this compound gave an IC50 of 0.12 nM. In data set [1], the concentration at 2 h was 3740 nM. In addition, the “Inhibitory activity II (CYP3A4)” value at Cytochrome P450 (CYP3A4) is “superior actions”.

The compound `CCCCc1c(C(=O)C(C(=O)c2cccc(F)c2)=C2Nc3ccccc3N2)cccc1[C@@H](O)CO` [Ex 4-8] came in with a melting point of 132 to 133 °C. For the same compound, the IC50 on human GnRH receptor turned out to be 0.081 nM. In addition, the concentration at 2 h in data set [1] turned out to be 1790 nM.

With `O=C(C(C(=O)c1cccc([C@@H](O)CO)c1Cl)=C1Nc2ccccc2N1)c1cccc(Cl)c1` [Ex 4-15], the melting point fell in the range of 134 to 136 °C. This compound came in with an IC50 at human GnRH receptor of 0.076 nM. Besides, in data set [1], the concentration at 2 h was 1440 nM.

In turn, `O=C(C(C(=O)c1cccc([C@@H](O)CO)c1Cl)=C1Nc2ccccc2N1)c1cccc(F)c1` [Ex 4-21] gave a melting point of 125 to 127 °C. Moreover, in data set [2], the “metabolic stability” value is reported as “superior metabolic stability”. In addition, the IC50 at human GnRH receptor is 0.24 nM. In data set [1], the concentration at 2 h was determined as 2170 nM. The “Inhibitory activity II (CYP3A4)” value on Cytochrome P450 (CYP3A4) is given as “superior actions”.

`O=C(C(C(=O)c1ccc(F)c([C@@H](O)CO)c1)=C1Nc2ccccc2N1)c1cc(F)cc(F)c1` [Ex 4-22] registered a melting point of 147 to 149 °C. The “metabolic stability” value in data set [2] is on record as “superior metabolic stability”. The same compound yielded an IC50 at human GnRH receptor of 0.13 nM. Further, the concentration at 2 h in data set [1] was found to be 2170 nM. The “Inhibitory activity II (CYP3A4)” value on Cytochrome P450 (CYP3A4) is “superior actions”.

For the compound `Cc1c(C(=O)C(C(=O)c2cccc(Cl)c2)=C2Nc3ccccc3N2)cccc1[C@@H](O)CO` [Ex 4-23], at human GnRH receptor, the IC50 came to 0.18 nM. In addition, in data set [1], the concentration at 2 h is 1110 nM.

In the case of `Cc1cccc(C(=O)C(C(=O)c2cccc([C@@H](O)CO)c2C)=C2Nc3ccccc3N2)c1` [Ex 4-25], the “metabolic stability” value in data set [2] is reported as “superior metabolic stability”. At human GnRH receptor, the IC50 was found to be 0.14 nM. Besides, the concentration at 2 h in data set [1] was found to be 1390 nM. Further, at Cytochrome P450 (CYP3A4), the “Inhibitory activity II (CYP3A4)” value is “superior actions”.

In turn, `Cc1c(C(=O)C(C(=O)c2ccccc2F)=C2Nc3ccccc3N2)cccc1[C@@H](O)CO` [Ex 4-29] had a melting point of 215 to 217 °C. Moreover, the “metabolic stability” value in data set [2] was “superior metabolic stability”. On human GnRH receptor, this compound had an IC50 of 0.19 nM. Also, the concentration at 2 h in data set [1] was determined as 6440 nM. On Cytochrome P450 (CYP3A4), the “Inhibitory activity II (CYP3A4)” value is “superior actions”.

Turning to `O=C(C(C(=O)c1cccc([C@@H](O)CO)c1Cl)=C1Nc2ccccc2N1)c1cc(F)cc(F)c1` [Ex 4-30], the melting point is 126 to 129 °C. In addition, the “metabolic stability” value in data set [2] is “superior metabolic stability”. At human GnRH receptor, this compound had an IC50 of 0.1 nM. Further, the concentration at 2 h in data set [1] was 1500 nM. Also, the “Inhibitory activity II (CYP3A4)” value at Cytochrome P450 (CYP3A4) was “superior actions”.

In the case of `Cc1cccc(C(=O)C(C(=O)c2cccc([C@@H](O)CO)c2Cl)=C2Nc3ccccc3N2)c1` [Ex 4-32], the IC50 on human GnRH receptor was found to be 0.12 nM. The concentration at 2 h in data set [1] was determined as 670 nM.

`O=C(C(C(=O)c1cccc([C@@H](O)CO)c1F)=C1Nc2ccccc2N1)c1cc(F)cc(F)c1` [Ex 4-33] showed an IC50 at human GnRH receptor of 0.12 nM. Also, the concentration at 2 h in data set [1] worked out at 1590 nM.

`O=C(C(C(=O)c1cccc([C@@H](O)CO)c1)=C1Nc2ccccc2N1)c1cc(F)cc(F)c1` [Ex 13-2, 1-(3,5-difluorophenyl)-2-(1,3-dihydro-2H-benzimidazol-2-ylidene)-3-{3-[(1R)-1,2-dihydroxyethyl]phenyl}propane-1,3-dione] yielded a melting point of 189 to 190 °C.
